Laboratory results as given in the supplement of paper PMC11061612.

How the values were obtained:
AZD6738 = compound: C[C@@H]1COCCN1C2=NC(=NC(=C2)C3(CC3)[S@](=N)(=O)C)C4=C5C=CNC5=NC=C4 [AZD6738]; conditions: max 10 µM
Method in brief: (§1)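 Cancer cell lines were dosed for 72 hours (final DMSO typically 0.2%) after 24 hours at 37°C and 5% CO2 in 1536-well plates containing 7.5 μl DMEM/F12 or RPMI with 10% FBS. Viability came from CellTiter-Glo 2.0 luminescence, scaled between blank-well and DMSO-well means, and dose responses were fitted to a two-parameter logistic curve with a non-linear mixed effects model. The single-agent IC50 was obtained from this fit.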

AZD8186 = compound: C[C@@H](Nc1cc(F)cc(F)c1)c1cc(C(=O)N(C)C)cc2c(=O)cc(N3CCOCC3)oc12 [AZD8186]; conditions: max 10 µM
Method in brief: as §1

Olaparib = compound: O=C(c1cc(Cc2n[nH]c(=O)c3ccccc23)ccc1F)N1CCN(C(=O)C2CC2)CC1 [Olaparib]; conditions: max 10 µM
Method in brief: as §1

MK-2206 = compound: NC1(c2ccc(-c3nc4ccn5c(=O)[nH]nc5c4cc3-c3ccccc3)cc2)CCC1 [MK-2206]; conditions: max 10 µM
Method in brief: as §1

Paclitaxel = compound: CC(=O)O[C@H]1C(=O)[C@@]2(C)[C@H]([C@H](OC(=O)c3ccccc3)[C@]3(O)C[C@H](OC(=O)[C@H](O)[C@@H](NC(=O)c4ccccc4)c4ccccc4)C(C)=C1C3(C)C)[C@]1(OC(C)=O)CO[C@@H]1C[C@@H]2O [Paclitaxel]; conditions: max 3 µM
Method in brief: as §1

Savolitinib = compound: C[C@@H](c1ccc2nccn2c1)n1nnc2ncc(-c3cnn(C)c3)nc21 [Savolitinib]; conditions: max 1 µM
Method in brief: as §1

AZD1390 = compound: CC(C)n1c(=O)n(C)c2cnc3cc(F)c(-c4ccc(OCCCN5CCCCC5)nc4)cc3c21 [AZD1390]; conditions: max 0.3 µM
Method in brief: as §1

Gemcitabine = compound: Nc1ccn([C@@H]2O[C@H](CO)[C@@H](O)C2(F)F)c(=O)n1 [Gemcitabine]; conditions: max 0.3 µM
Method in brief: as §1

SN-38 = compound: CCc1c2c(nc3ccc(O)cc13)-c1cc3c(c(=O)n1C2)COC(=O)[C@]3(O)CC [SN-38]; conditions: max 0.3 µM
Method in brief: as §1

AZD0156 = compound: CN(C)CCCOc1ccc(-c2ccc3ncc4c(c3c2)n(C2CCOCC2)c(=O)n4C)cn1 [AZD0156]; conditions: max 3 µM
Method in brief: as §1

[1] = compound: O=C(Nc1ccc2[nH]nc(-c3ccncc3)c2c1)[C@@H]1CCN(CC(=O)N2CCN(c3ccc(-c4ncccn4)cc3)CC2)C1; conditions: max 5 µM
Method in brief: as §1

Gefitinib = compound: COc1cc2ncnc(Nc3ccc(F)c(Cl)c3)c2cc1OCCCN1CCOCC1 [Gefitinib]; conditions: max 10 µM
Method in brief: as §1

AZD5153 = compound: COc1nnc2ccc(N3CCC(c4ccc(OCCN5CCN(C)C(=O)[C@H]5C)cc4)CC3)nn12 [AZD5153]; conditions: max 1 µM
Method in brief: as §1

AZD4320 = compound: CN(CC[C@H](CSC1=CC=CC=C1)NC2=C(C=C(C=C2)S(=O)(=O)NC(=O)C3=CC=C(C=C3)N4CCC(CC4)[C@H](C5=CC=CC=C5C6=CC=C(C=C6)Cl)O)S(=O)(=O)C(F)(F)F)CCO [AZD4320]; conditions: max 1 µM
Method in brief: as §1

AZD5363 = compound: C1CN(CCC1(C(=O)N[C@@H](CCO)C2=CC=C(C=C2)Cl)N)C3=NC=NC4=C3C=CN4 [AZD5363]; conditions: max 10 µM
Method in brief: as §1

Selumetinib = compound: Cn1cnc2c(F)c(Nc3ccc(Br)cc3Cl)c(C(=O)NOCCO)cc21 [Selumetinib]; conditions: max 10 µM
Method in brief: as §1

AZD7648 = compound: Cc1cc2ncnn2cc1Nc1ncc2c(n1)n(C1CCOCC1)c(=O)n2C [AZD7648]; conditions: max 10 µM
Method in brief: as §1

Carboplatin = compound: C1CC(C1)(C(=O)[O-])C(=O)[O-].N.N.[Pt+2] [Carboplatin]; conditions: max 10 µM
Method in brief: as §1

Crizotinib = compound: C[C@@H](Oc1cc(-c2cnn(C3CCNCC3)c2)cnc1N)c1c(Cl)ccc(F)c1Cl [Crizotinib]; conditions: max 10 µM
Method in brief: as §1

Palbociclib = compound: CC(=O)c1c(C)c2cnc(Nc3ccc(N4CCNCC4)cn3)nc2n(C2CCCC2)c1=O [Palbociclib]; conditions: max 10 µM
Method in brief: as §1

AZD2811 = compound: CCN(CCO)CCCOc1ccc2c(Nc3cc(CC(=O)Nc4cccc(F)c4)[nH]n3)ncnc2c1 [AZD2811]; conditions: max 1 µM
Method in brief: as §1

Venetoclax = compound: CC1(C)CCC(CN2CCN(c3ccc(C(=O)NS(=O)(=O)c4ccc(NCC5CCOCC5)c([N+](=O)[O-])c4)c(Oc4cnc5[nH]ccc5c4)c3)CC2)=C(c2ccc(Cl)cc2)C1 [Venetoclax]; conditions: max 1 µM
Method in brief: as §1

Lapatinib = compound: CS(=O)(=O)CCNCc1ccc(-c2ccc3ncnc(Nc4ccc(OCc5cccc(F)c5)c(Cl)c4)c3c2)o1 [Lapatinib]; conditions: max 10 µM
Method in brief: as §1

AZD5991 = compound: Cc1c2c(nn1C)CSCc1cc(n(C)n1)CSc1cc(c3ccccc3c1)OCCCc1c(C(=O)O)n(C)c3c-2c(Cl)ccc13 [AZD5991]; conditions: max 1 µM
Method in brief: as §1

AZD1775 = compound: C=CCn1c(=O)c2cnc(Nc3ccc(N4CCN(C)CC4)cc3)nc2n1-c1cccc(C(C)(C)O)n1 [AZD1775]; conditions: max 3 µM
Method in brief: as §1

SRA737 = compound: N#Cc1cnc(Nc2cc(NC[C@H]3CNCCO3)c(C(F)(F)F)cn2)cn1 [SRA737]; conditions: max 10 µM
Method in brief: as §1

5-Fluorouracil = compound: O=c1[nH]cc(F)c(=O)[nH]1 [5-Fluorouracil]; conditions: max 20 µM
Method in brief: as §1

Taselisib = compound: Cc1nc(-c2cn3c(n2)-c2ccc(-c4cnn(C(C)(C)C(N)=O)c4)cc2OCC3)n(C(C)C)n1 [Taselisib]; conditions: max 10 µM
Method in brief: as §1

Etoposide = compound: COc1cc([C@@H]2c3cc4c(cc3[C@@H](O[C@@H]3O[C@@H]5CO[C@@H](C)O[C@H]5[C@H](O)[C@H]3O)[C@H]3COC(=O)[C@H]23)OCO4)cc(OC)c1O [Etoposide]; conditions: max 10 µM
Method in brief: as §1

Doxorubicin = compound: COc1cccc2c1C(=O)c1c(O)c3c(c(O)c1C2=O)C[C@@](O)(C(=O)CO)C[C@@H]3O[C@H]1C[C@H](N)[C@H](O)[C@H](C)O1 [Doxorubicin]; conditions: max 1 µM
Method in brief: as §1

Trametinib = compound: CC(=O)Nc1cccc(-n2c(=O)n(C3CC3)c(=O)c3c(Nc4ccc(I)cc4F)n(C)c(=O)c(C)c32)c1 [Trametinib]; conditions: max 1 µM
Method in brief: as §1

Prexasertib = compound: COc1cccc(OCCCN)c1-c1cc(Nc2cnc(C#N)cn2)n[nH]1 [Prexasertib]; conditions: max 1 µM
Method in brief: as §1

Dasatinib = compound: CC1=C(C(=CC=C1)Cl)NC(=O)C2=CN=C(S2)NC3=CC(=NC(=N3)C)N4CCN(CC4)CCO [Dasatinib]; conditions: max 2 µM
Method in brief: as §1

Alisertib = compound: COc1cc(Nc2ncc3c(n2)-c2ccc(Cl)cc2C(c2c(F)cccc2OC)=NC3)ccc1C(=O)O [Alisertib]; conditions: max 10 µM
Method in brief: as §1

SG3199 = compound: CC1=CN2[C@@H](C1)C=NC3=CC(=C(C=C3C2=O)OC)OCCCCCOC4=C(C=C5C(=C4)N=C[C@@H]6CC(=CN6C5=O)C)OC [SG3199]; conditions: max 0.001 µM
Method in brief: as §1

Cell Line | IC50, cell viability 72 h (AZD6738) [µM] | IC50, cell viability 72 h (AZD8186) [µM] | IC50, cell viability 72 h (Olaparib) [µM] | IC50, cell viability 72 h (MK-2206) [µM] | IC50, cell viability 72 h (Paclitaxel) [µM] | IC50, cell viability 72 h (Savolitinib) [µM] | IC50, cell viability 72 h (AZD1390) [µM] | IC50, cell viability 72 h (Gemcitabine) [µM] | IC50, cell viability 72 h (SN-38) [µM] | IC50, cell viability 72 h (AZD0156) [µM] | IC50, cell viability 72 h [1] [µM] | IC50, cell viability 72 h (Gefitinib) [µM] | IC50, cell viability 72 h (AZD5153) [µM] | IC50, cell viability 72 h (AZD4320) [µM] | IC50, cell viability 72 h (AZD5363) [µM] | IC50, cell viability 72 h (Selumetinib) [µM] | IC50, cell viability 72 h (AZD7648) [µM] | IC50, cell viability 72 h (Carboplatin) [µM] | IC50, cell viability 72 h (Crizotinib) [µM] | IC50, cell viability 72 h (Palbociclib) [µM] | IC50, cell viability 72 h (AZD2811) [µM] | IC50, cell viability 72 h (Venetoclax) [µM] | IC50, cell viability 72 h (Lapatinib) [µM] | IC50, cell viability 72 h (AZD5991) [µM] | IC50, cell viability 72 h (AZD1775) [µM] | IC50, cell viability 72 h (SRA737) [µM] | IC50, cell viability 72 h (5-Fluorouracil) [µM] | IC50, cell viability 72 h (Taselisib) [µM] | IC50, cell viability 72 h (Etoposide) [µM] | IC50, cell viability 72 h (Doxorubicin) [µM] | IC50, cell viability 72 h (Trametinib) [µM] | IC50, cell viability 72 h (Prexasertib) [µM] | IC50, cell viability 72 h (Dasatinib) [µM] | IC50, cell viability 72 h (Alisertib) [µM] | IC50, cell viability 72 h (SG3199) [µM]
BT-549 (Breast Carcinoma) | > 10 | > 10 | > 10 | > 10 | 0.0253 | > 1 | > 0.3 | > 0.3 | 0.171 | > 3 | > 5 | > 10 | 0.531 | > 1 | > 10 | > 10 | > 10 | > 10 | > 10 | > 10 | > 1 | > 1 | > 10 | > 1 | 2.52 | > 10 | > 20 | > 10 | 9.22 | > 1 | > 1 | 0.592 | > 2 | > 10 | > 0.001
D-263MG (Glioblastoma) | 7.85 | > 10 | > 10 | > 10 | 0.0761 | > 1 | > 0.3 | > 0.3 | 0.114 | > 3 | > 5 | > 10 | > 1 | > 1 | > 10 | > 10 | > 10 | > 10 | > 10 | > 10 | > 1 | > 1 | > 10 | > 1 | 2.49 | > 10 | > 20 | > 10 | > 10 | 0.858 | > 1 | 0.125 | > 2 | 7.08 | > 0.001
TK10 (Kidney Carcinoma) | > 10 | > 10 | > 10 | > 10 | 0.715 | > 1 | > 0.3 | > 0.3 | > 0.3 | > 3 | > 5 | 9.99 | 0.903 | > 1 | > 10 | > 10 | > 10 | > 10 | > 10 | > 10 | > 1 | > 1 | 8.3 | > 1 | 2.87 | > 10 | > 20 | 5.34 | > 10 | > 1 | > 1 | 0.159 | 0.437 | > 10 | > 0.001
Caov-4 (Ovarian Carcinoma) | 3.19 | > 10 | > 10 | 9.35 | 0.545 | > 1 | > 0.3 | 0.0785 | 0.0116 | > 3 | 3.33 | > 10 | 0.719 | > 1 | > 10 | > 10 | > 10 | > 10 | > 10 | > 10 | > 1 | > 1 | > 10 | 0.993 | 0.816 | 4.02 | > 20 | > 10 | 6.04 | 0.253 | 0.108 | 0.0126 | > 2 | > 10 | > 0.001
LU-65 (Non-Small Cell Lung Carcinoma) | 3.97 | > 10 | > 10 | > 10 | 0.0321 | > 1 | > 0.3 | > 0.3 | 0.0491 | > 3 | 0.35 | > 10 | > 1 | > 1 | > 10 | 1.65 | > 10 | > 10 | 7.51 | > 10 | > 1 | > 1 | > 10 | > 1 | 0.77 | 4.3 | > 20 | 3.01 | > 10 | 0.341 | 0.0529 | 0.0896 | > 2 | > 10 | > 0.001
